Measured values as given in paper PMC8466613, “Cocaine Detection by a Laser-Induced Immunofluorometric Biosensor” (Biosensors, 2021).

Tested on: T1, monoclonal anti-benzoylecgonine/cocaine (BEC) antibody IP3G2
T1 construct: monoclonal antibody, clone IP3G2, mouse, subtype IgG1
Experiment: indirect competitive ELISA with chemiluminescence detection against BEC-BSA; also competitive immunofluorometric biosensor with Dy-654-labelled antibody
Type: binding, Mus musculus

SMILES: COC(=O)[C@H]1[C@@H](OC(=O)c2ccccc2)C[C@@H]2CC[C@H]1N2C [cocaine]
- IC50: ~0.75 nM
